Experimental findings from ChEMBL document CHEMBL1139786, “Anti-tubercular agents. Part IV: Synthesis and antimycobacterial evaluation of nitroheterocyclic-based 1,2,4-benzothiadiazines” (2007) are described below.

Common to all, as to format: functional
In assay [1] the test system is Staphylococcus aureus. The experiment in a line: Antibacterial activity against Staphylococcus aureus MTCC 96 by broth dilution method. In general terms: Broth dilution looks for growth in wells or tubes with falling amounts of substance.
For assay [2], the system named is Bacillus subtilis. The experiment in a line: Antibacterial activity against Bacillus subtilis MTCC 441 by broth dilution method.
The subject of assay [3] is Escherichia coli. As to the kind of experiment: Antibacterial activity against Escherichia coli MTCC 443 by broth dilution method.
Assay [4] concerns Pseudomonas aeruginosa. As to the kind of experiment: Antibacterial activity against Pseudomonas aeruginosa MTCC 1688 by broth dilution method.
Assay [5] has as its system Mycobacterium tuberculosis. The experiment in a line: Antibacterial activity against Mycobacterium tuberculosis H37Rv by nitrate reductase assay.

A word on the MIC: it is the smallest concentration in the dilution series that meets the test's criterion for growth inhibition. Lower therefore signals greater potency.

Values after ≈ are worked out from the molar mass of the structure shown.

Regarding `O=[N+]([O-])c1ccc(/C=N\NC2=NS(=O)(=O)c3ccccc3N2c2ccccc2)s1`, the MIC in assay [1] was 37.5 µg/mL (≈ 87.7 µM); in assay [2], 37.5 µg/mL (≈ 87.7 µM); in assay [3], 18.8 µg/mL (≈ 43.9 µM); in assay [4] it was 150 µg/mL (≈ 351 µM); in assay [5], 4 µg/mL (≈ 9.36 µM).
Consider `CCN1C(N/N=C\c2ccc([N+](=O)[O-])o2)=NS(=O)(=O)c2ccccc21`, for which the minimal inhibitory concentration (MIC) was 37.5 µg/mL (≈ 103 µM) in assay [1]; 9.37 µg/mL (≈ 25.8 µM) in assay [2]; 18.8 µg/mL (≈ 51.6 µM) in assay [3]; 150 µg/mL (≈ 413 µM) in assay [4]; 8 µg/mL (≈ 22 µM) in assay [5].
For `CCN1C(NNC(=O)c2ccc(-c3ccccc3[N+](=O)[O-])o2)=NS(=O)(=O)c2ccccc21` the same measures were 9.37 µg/mL (≈ 20.6 µM), 18.8 µg/mL (≈ 41.2 µM), 18.8 µg/mL (≈ 41.2 µM), 150 µg/mL (≈ 329 µM) and above 100 µg/mL.
For `CN1C(NNC(=O)c2ccc(-c3cccc([N+](=O)[O-])c3)o2)=NS(=O)(=O)c2ccccc21` the same measures were 18.8 µg/mL (≈ 42.5 µM), 37.5 µg/mL (≈ 85 µM), 18.8 µg/mL (≈ 42.5 µM), 75 µg/mL (≈ 170 µM) and above 100 µg/mL.
In the case of `CC(C)N1C(N/N=C\c2ccc([N+](=O)[O-])s2)=NS(=O)(=O)c2ccccc21`, the MIC was found to be 18.8 µg/mL (≈ 47.7 µM) in assay [1]; 18.8 µg/mL (≈ 47.7 µM) in assay [2]; 18.8 µg/mL (≈ 47.7 µM) in assay [3]; 150 µg/mL (≈ 381 µM) in assay [4]; 4 µg/mL (≈ 10.2 µM) in assay [5].
For the molecule `CCN1C(NNC(=O)c2ccc([N+](=O)[O-])o2)=NS(=O)(=O)c2ccccc21`, the MIC stood at 150 µg/mL (≈ 395 µM) in assay [1]; 18.8 µg/mL (≈ 49.4 µM) in assay [2]; 18.8 µg/mL (≈ 49.4 µM) in assay [3]; 150 µg/mL (≈ 395 µM) in assay [4]; 32 µg/mL (≈ 84.4 µM) in assay [5].
With `CO[C@H]1/C=C/O[C@@]2(C)Oc3c(C)c(O)c4c(O)c(c(/C=N/N5CCN(C)CC5)c(O)c4c3C2=O)NC(=O)/C(C)=C\C=C\[C@H](C)[C@H](O)[C@@H](C)[C@@H](O)[C@@H](C)[C@H](OC(C)=O)[C@@H]1C` [RIFAMPIN], inhibition of growth in assay [5] (MIC) required 0.12 µg/mL (≈ 0.146 µM).
With `CN1C(NNC(=O)c2ccc(-c3ccccc3[N+](=O)[O-])o2)=NS(=O)(=O)c2cc(Cl)ccc21`, the MIC in assay [1] is 75 µg/mL (≈ 158 µM); in assay [2], 37.5 µg/mL (≈ 78.8 µM); in assay [3] it was 18.8 µg/mL (≈ 39.4 µM); in assay [4] it was 150 µg/mL (≈ 315 µM); in assay [5], above 100 µg/mL.
`CCN1C(N/N=C\c2ccc([N+](=O)[O-])s2)=NS(=O)(=O)c2ccccc21`: the MIC in assay [1] worked out at 18.8 µg/mL (≈ 49.4 µM); in assay [2], 18.8 µg/mL (≈ 49.4 µM); in assay [3], 18.8 µg/mL (≈ 49.4 µM); in assay [4], 150 µg/mL (≈ 395 µM); in assay [5], 16 µg/mL (≈ 42.2 µM).
Regarding `O=C(NNC1=NS(=O)(=O)c2ccccc2N1c1ccccc1)c1ccc([N+](=O)[O-])o1`, the MIC in assay [1] stood at 37.5 µg/mL (≈ 87.7 µM); in assay [2], 75 µg/mL (≈ 175 µM); in assay [3], 18.8 µg/mL (≈ 43.9 µM); in assay [4] it was 150 µg/mL (≈ 351 µM); in assay [5], 8 µg/mL (≈ 18.7 µM).
In the case of `NNC(=O)c1ccncc1` [ISONIAZID], the MIC in assay [5] came out at 0.5 µg/mL (≈ 3.65 µM).
Regarding `O=[N+]([O-])c1ccc(/C=N\NC2=NS(=O)(=O)c3ccccc3N2c2ccccc2)o1`, the MIC in assay [1] came to 75 µg/mL (≈ 182 µM); in assay [2], 37.5 µg/mL (≈ 91.2 µM); in assay [3], 37.5 µg/mL (≈ 91.2 µM); in assay [4], 150 µg/mL (≈ 365 µM); in assay [5], 1 µg/mL (≈ 2.43 µM).
For `CN1C(N/N=C\c2ccc([N+](=O)[O-])o2)=NS(=O)(=O)c2ccccc21`, the MIC in assay [1] turned out to be 37.5 µg/mL (≈ 107 µM); in assay [2] it was 37.5 µg/mL (≈ 107 µM); in assay [3] it was 18.8 µg/mL (≈ 53.7 µM); in assay [4], 150 µg/mL (≈ 429 µM); in assay [5], 8 µg/mL (≈ 22.9 µM).
With `CN1C(NNC(=O)c2ccc([N+](=O)[O-])o2)=NS(=O)(=O)c2cc(Cl)ccc21`, the minimum inhibitory concentration (MIC) in assay [1] is 37.5 µg/mL (≈ 93.8 µM); in assay [2], 18.8 µg/mL (≈ 46.9 µM); in assay [3] it was 18.8 µg/mL (≈ 46.9 µM); in assay [4] it was 150 µg/mL (≈ 375 µM); in assay [5], 4 µg/mL (≈ 10 µM).
Take `O=C(NNC1=NS(=O)(=O)c2ccccc2N1c1ccccc1)c1ccc(-c2cccc([N+](=O)[O-])c2)o1`: the MIC in assay [1] was 18.8 µg/mL (≈ 37.2 µM); in assay [2], 37.5 µg/mL (≈ 74.5 µM); in assay [3], 18.8 µg/mL (≈ 37.2 µM); in assay [4], 150 µg/mL (≈ 298 µM); in assay [5], above 100 µg/mL.
On to `O=C(NNC1=NS(=O)(=O)c2ccccc2N1c1ccccc1)c1ccc(-c2ccccc2[N+](=O)[O-])o1`, for which the MIC is 18.8 µg/mL (≈ 37.2 µM) in assay [1]; 37.5 µg/mL (≈ 74.5 µM) in assay [2]; 75 µg/mL (≈ 149 µM) in assay [3]; 150 µg/mL (≈ 298 µM) in assay [4]; above 100 µg/mL in assay [5].
Consider `O=C1CN(/N=C/c2ccc([N+](=O)[O-])o2)C(=O)N1` [NITROFURANTOIN], for which the MIC in assay [1] worked out at 18.8 µg/mL (≈ 78.7 µM); in assay [2], 18.8 µg/mL (≈ 78.7 µM); in assay [3], 18.8 µg/mL (≈ 78.7 µM); in assay [4], 150 µg/mL (≈ 630 µM).
As to `CN1C(N/N=C\c2ccc([N+](=O)[O-])s2)=NS(=O)(=O)c2ccccc21`, the MIC came out at 37.5 µg/mL (≈ 103 µM) in assay [1]; 18.8 µg/mL (≈ 51.3 µM) in assay [2]; 37.5 µg/mL (≈ 103 µM) in assay [3]; 150 µg/mL (≈ 411 µM) in assay [4]; 8 µg/mL (≈ 21.9 µM) in assay [5].
On to `CCN1C(NNC(=O)c2ccc(-c3cccc([N+](=O)[O-])c3)o2)=NS(=O)(=O)c2ccccc21`, for which the MIC was 75 µg/mL (≈ 165 µM) in assay [1]; 37.5 µg/mL (≈ 82.3 µM) in assay [2]; 75 µg/mL (≈ 165 µM) in assay [3]; 150 µg/mL (≈ 329 µM) in assay [4]; above 100 µg/mL in assay [5].
`CN1C(NNC(=O)c2ccc([N+](=O)[O-])o2)=NS(=O)(=O)c2ccccc21`: the MIC came out at 37.5 µg/mL (≈ 103 µM) in assay [1]; 18.8 µg/mL (≈ 51.3 µM) in assay [2]; 18.8 µg/mL (≈ 51.3 µM) in assay [3]; 150 µg/mL (≈ 411 µM) in assay [4]; 32 µg/mL (≈ 87.6 µM) in assay [5].
With `CN1C(NNC(=O)c2ccc(-c3ccccc3[N+](=O)[O-])o2)=NS(=O)(=O)c2ccccc21`, the MIC in assay [1] was 18.8 µg/mL (≈ 42.5 µM); in assay [2], 37.5 µg/mL (≈ 85 µM); in assay [3], 37.5 µg/mL (≈ 85 µM); in assay [4] it was 75 µg/mL (≈ 170 µM); in assay [5], above 100 µg/mL.
